In general, IC50 refers to the concentration at which inhibition is half-maximal.

The assay deals with T1, human HSL (Homo sapiens, UniProt Q05469).
T1 construct: overlapping PCR to generate a full length human HSL ORF with a 3′-His6 tag; His6 (C); made in house; host or cells: High 5 insect cells (baculovirus, pFast-BAC)
T1 sequence (Q05469 1-1076): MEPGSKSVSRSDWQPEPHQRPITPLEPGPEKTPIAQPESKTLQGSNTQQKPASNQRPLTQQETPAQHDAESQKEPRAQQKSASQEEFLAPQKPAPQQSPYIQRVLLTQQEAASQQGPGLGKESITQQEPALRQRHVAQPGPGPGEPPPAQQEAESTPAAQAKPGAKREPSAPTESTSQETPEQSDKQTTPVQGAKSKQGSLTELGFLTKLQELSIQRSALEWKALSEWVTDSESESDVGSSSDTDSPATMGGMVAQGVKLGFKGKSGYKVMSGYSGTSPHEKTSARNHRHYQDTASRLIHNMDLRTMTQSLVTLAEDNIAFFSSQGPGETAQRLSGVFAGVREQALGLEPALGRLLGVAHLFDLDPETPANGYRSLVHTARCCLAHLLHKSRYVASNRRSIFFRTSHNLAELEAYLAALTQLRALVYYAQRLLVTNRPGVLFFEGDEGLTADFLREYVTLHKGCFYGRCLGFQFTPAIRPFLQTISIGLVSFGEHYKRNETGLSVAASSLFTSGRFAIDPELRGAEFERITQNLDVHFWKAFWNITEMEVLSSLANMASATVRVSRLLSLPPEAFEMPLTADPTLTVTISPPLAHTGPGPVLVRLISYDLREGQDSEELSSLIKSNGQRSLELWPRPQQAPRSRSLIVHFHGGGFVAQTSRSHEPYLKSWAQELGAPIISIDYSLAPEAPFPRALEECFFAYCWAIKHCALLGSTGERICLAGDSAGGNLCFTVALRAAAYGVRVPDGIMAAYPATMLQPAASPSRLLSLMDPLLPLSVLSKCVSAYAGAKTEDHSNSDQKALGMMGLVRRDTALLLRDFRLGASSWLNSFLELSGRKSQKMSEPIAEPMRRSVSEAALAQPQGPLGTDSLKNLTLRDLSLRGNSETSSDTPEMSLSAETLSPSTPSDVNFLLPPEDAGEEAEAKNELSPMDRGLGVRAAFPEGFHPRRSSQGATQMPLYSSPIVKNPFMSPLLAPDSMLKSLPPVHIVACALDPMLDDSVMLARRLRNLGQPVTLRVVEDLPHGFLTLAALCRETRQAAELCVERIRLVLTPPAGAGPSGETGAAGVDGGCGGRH
Nature of the assay: Human Hormone-Sensitive Lipase (HSL) Enzyme Inhibition Assay. Format: biochemical. Conditions: colorimetric assay, 2,3-dimercapto-1-propanol tributyrate (DMPT) substrate, 37° C. for 20 minutes, absorbance at 405 nm; read-out: HSL hum IC50. The method, then:
Production of Human Full Length Hormone Sensitive Lipase-His^6
1) Cloning: cDNA was prepared from commercial human brain polyA-+ RNA and used as a template in overlapping PCR to generate a full length human HSL ORF with a 3′-His6 tag. This full length insert was cloned into the pFast-BAC vector and the DNA-sequence of several single clones was verified. DNA from a correct full length clone with the 3′His6 tag was used to transform the E. coli strain DH10BAC. Resulting bacmid DNA was used to generate a titered baculovirus stock for protein generation.
Cells were thawed. […] was done at 3×30 sec., Lubrol PX was added to 0.2% final concentration followed by stirring for 15 min. at 4° C. and centrifugation at 25 k×g, 60 min., 4° C. […] Supernatant was removed, the resin washed in the centrifuge vessel using 5 volumes of Base Buffer containing 0.2% Lubrol PX. Centrifugation was done again, then the supernatant discarded. The resin wass poured onto a 0.8 μm membrane in a disposable filter unit (Nalge 450-0080), and washed with 5 volumes of Base Buffer containing 0.2% Lubrol PX. It was then washed with 30 volumes of Base Buffer containing 60 mM imidazole pH 7.5 at 4° C. The protein was eluated with 5 volumes of 25 mM Tris-Cl, 300 mM NaCl, 200 mM imidazole, 10 mM 2-mercaptoethanol, pH 7.5 at 4° C. by tumbling resin with buffer end-over-end, 30 min., 4° C. The resin was captured on a 0.2 μm membrane disposable filter unit (Millipore SCGP U02 RE) and the eluate collected in the reservoir. The eluate was concentrated using a 30 k MWCO centrifugal filter device (Sartorius Vivascience Vivacell 100, VC1022), to 20 ml. It was then dialyzed overnight at 4° C., two times against 2 L of 10% glycerol, 25 mM Tris-Cl, 300 mM NaCl, 0.2 mM EDTA, 0.2 mM DTT, pH 7.5 at 4° C. The protein was filtered using a 0.22 μm disposable filter unit (Millipore SCGP00525). The protein concentration was calculated from absorbance at 280 nm, using 280=0.67 cm-1 mg-1. […] The protein was stored at −80° C.
Human Hormone-Sensitive Lipase (HSL) Enzyme Inhibition Assay:
HSL enzyme activity was measured by a colorimetric assay using 2,3-dimercapto-1-propanol tributyrate (Aldrich, St. Louis, Mo.) as a substrate. Typically, 1.5 mM 2,3-dimercapto-1-propanol tributyrate (DMPT) in 100 mM MOPS, pH 7.2, 0.2 mg/ml fatty acid-free BSA was prepared by sonication at 4° C. to homogenous suspension. Test compounds (2 mM stock in DMSO) were diluted 3 fold in series in DMSO. Compound solutions were diluted 24 fold in 1.5 mM DMPT containing solution and 18 ul per well was added to 384-well microplates (Corning Costar). Twelve microliters per well of human HSL (15 ug/ml) was added and the reaction mixture was incubated at 37° C. for 20 minutes. Six microliters of 12 mM dithio-bis-(2-nitrobenzoic acid) (DTNB) in DMSO plus 1.2% SDS and 0.6% Triton X-100 were added and the mixture was incubated at room temperature for 15 minutes. Product production was monitored by reading absorbance at 405 nm on an Envision Reader (PerkinElmer Life and Analytical Sciences, Shelton, Conn.).

For the molecule `CCC(C)c1ccc(N2CCC3(CCN(S(=O)(=O)c4cccs4)CC3)C2=O)cc1` (stereo not drawn) [Example 43, 2-(4-sec-Butyl-phenyl)-8-(thiophene-2-sulfonyl)-2,8-diaza-spiro[4.5]decan-1-one], the half-inhibitory concentration (IC50) was found to be 0.04 µM. Take `CCC(C)c1ccc(N2CCC3(CCN(S(=O)(=O)N4CCOCC4)CC3)C2=O)cc1` (stereo not drawn) [Example 44, 2-(4-sec-Butyl-phenyl)-8-(morpholine-4-sulfonyl)-2,8-diaza-spiro[4.5]decan-1-one]: the IC50 stood at 0.1 µM. For `CCC(C)c1ccc(N2CCC3(CCN(S(=O)(=O)c4ccc(C)s4)CC3)C2=O)cc1` (stereo not drawn) [Example 45, 2-(4-sec-Butyl-phenyl)-8-(5-methyl-thiophene-2-sulfonyl)-2,8-diaza-spiro[4.5]decan-1-one] the value was 0.06 µM. In the case of `CCC(C)c1ccc(N2CCC3(CCN(C(=O)CC(C)(C)C)CC3)C2=O)cc1` (stereo not drawn) [Example 46, 2-(4-sec-Butyl-phenyl)-8-(3,3-dimethyl-butyryl)-2,8-diaza-spiro[4.5]decan-1-one], the IC50 was determined as 0.15 µM. On to `O=C1N(CCc2ccc(Cl)cc2)CCC12CCN(S(=O)(=O)c1ccccc1Cl)CC2` [Example 47, 8-(2-Chloro-benzenesulfonyl)-2-[2-(4-chloro-phenyl)-ethyl]-2,8-diaza-spiro[4.5]decan-1-one], for which the 50% inhibitory concentration (IC50) was found to be 0.04 µM. Consider `CS(=O)(=O)Oc1ccc(N2CCC3(CCN(S(=O)(=O)c4ccccc4Cl)CC3)C2=O)cc1` [Example 48, Methanesulfonic acid 4-[8-(2-chloro-benzenesulfonyl)-1-oxo-2,8-diaza-spiro[4.5]dec-2-yl]-phenyl ester], for which the IC50 was 0.03 µM. For `O=C1N(Cc2ccc(OC(F)(F)F)cc2)CCC12CCN(S(=O)(=O)c1ccccc1Cl)CC2` [Example 49, 8-(2-Chloro-benzenesulfonyl)-2-(4-trifluoromethoxy-benzyl)-2,8-diaza-spiro[4.5]decan-1-one] the value was 0.15 µM; for `Cc1ccc(S(=O)(=O)N2CCC3(CCN(c4ccc(OS(C)(=O)=O)cc4)C3=O)CC2)s1` [Example 50, Methanesulfonic acid 4-[8-(5-methyl-thiophene-2-sulfonyl)-1-oxo-2,8-diaza-spiro[4.5]dec-2-yl]-phenyl ester], 0.06 µM; for `CS(=O)(=O)c1ccccc1S(=O)(=O)N1CCC2(CCN(c3ccc(OC(F)(F)F)cc3)C2=O)CC1` [Example 51, 8-(2-Methanesulfonyl-benzenesulfonyl)-2-(4-trifluoromethoxy-phenyl)-2,8-diaza-spiro[4.5]decan-1-one], 0.14 µM. Next, `CCc1ccc(N2CCC3(CCN(S(=O)(=O)c4ccccc4S(C)(=O)=O)CC3)C2=O)cc1` [Example 52, 2-(4-Ethyl-phenyl)-8-(2-methanesulfonyl-benzenesulfonyl)-2,8-diaza-spiro[4.5]decan-1-one]: 0.21 µM. Next, `CC(C)(C)CS(=O)(=O)N1CCC2(CCN(c3ccc(OS(C)(=O)=O)cc3)C2=O)CC1` [Example 53, Methanesulfonic acid 4-[8-(2,2-dimethyl-propane-1-sulfonyl)-1-oxo-2,8-diaza-spiro[4.5]dec-2-yl]-phenyl ester]: 0.11 µM. For the molecule `CCc1ccc(N2CCC3(CCN(S(=O)(=O)c4ccccc4OC(F)(F)F)CC3)C2=O)cc1` [Example 54, 2-(4-Ethyl-phenyl)-8-(2-trifluoromethoxy-benzenesulfonyl)-2,8-diaza-spiro[4.5]decan-1-one], the IC50 came out at 0.03 µM. Consider `O=C1N(c2ccc(OC(F)(F)F)cc2)CCC12CCN(S(=O)(=O)c1ccccc1OC(F)(F)F)CC2` [Example 55, 8-(2-Trifluoromethoxy-benzenesulfonyl)-2-(4-trifluoromethoxy-phenyl)-2,8-diaza-spiro[4.5]decan-1-one], for which the IC50 was 0.02 µM. As for `CS(=O)(=O)Oc1ccc(N2CCC3(CCN(S(=O)(=O)c4ccccc4OC(F)(F)F)CC3)C2=O)cc1` [Example 56, Methanesulfonic acid 4-[1-oxo-8-(2-trifluoromethoxy-benzenesulfonyl)-2,8-diaza-spiro[4.5]dec-2-yl]-phenyl ester], the IC50 was 0.02 µM.

`CCCc1ccc(N2CCC3(CCN(S(=O)(=O)c4ccccc4S(C)(=O)=O)CC3)C2=O)cc1` [Example 57, 8-(2-Methanesulfonyl-benzenesulfonyl)-2-(4-propyl-phenyl)-2,8-diaza-spiro[4.5]decan-1-one]: the IC50 is 0.14 µM. Regarding `CCCc1ccc(N2CCC3(CCN(S(=O)(=O)c4ccccc4OC(F)(F)F)CC3)C2=O)cc1` [Example 58, 2-(4-Propyl-phenyl)-8-(2-trifluoromethoxy-benzenesulfonyl)-2,8-diaza-spiro[4.5]decan-1-one], the IC50 worked out at 0.04 µM. For `CS(=O)(=O)Oc1ccc(N2CCC3(CCN(S(=O)(=O)c4cccs4)CC3)C2=O)cc1` [Example 59, Methanesulfonic acid 4-[1-oxo-8-(thiophene-2-sulfonyl)-2,8-diaza-spiro[4.5]dec-2-yl]-phenyl ester] the value was 0.03 µM. Regarding `CC(C)CS(=O)(=O)N1CCC2(CCN(c3ccc(CC(F)(F)F)cc3)C2=O)CC1` [Example 60, 8-(2-Methyl-propane-1-sulfonyl)-2-[4-(2,2,2-trifluoro-ethyl)-phenyl]-2,8-diaza-spiro[4.5]decan-1-one], the half-maximal inhibitory concentration (IC50) turned out to be 0.04 µM. For `CCC(C)c1ccc(N2CCC3(CCN(S(=O)(=O)CC(C)C)CC3)C2=O)cc1` (stereo not drawn) [Example 61, 2-(4-sec-Butyl-phenyl)-8-(2-methyl-propane-1-sulfonyl)-2,8-diaza-spiro[4.5]decan-1-one] the value was 0.07 µM; for `CC(C)CS(=O)(=O)N1CCC2(CCN(c3ccc(OS(C)(=O)=O)cc3)C2=O)CC1` [Example 62, Methanesulfonic acid 4-[8-(2-methyl-propane-1-sulfonyl)-1-oxo-2,8-diaza-spiro[4.5]dec-2-yl]-phenyl ester], 0.25 µM; for `CC(C)CS(=O)(=O)N1CCC2(CCN(c3ccc(OCC(F)(F)F)cc3)C2=O)CC1` [Example 63, 8-(2-Methyl-propane-1-sulfonyl)-2-[4-(2,2,2-trifluoro-ethoxy)-phenyl]-2,8-diaza-spiro[4.5]decan-1-one], 0.21 µM.

The record behind these values is patent publication US8329904B2, “Azacyclic derivatives” (Hoffmann-La Roche Inc., priority 2009, dated 2012).
